US10934310B2, “Inhibitors of Bruton's tyrosine kinase and method of their use” (JANSSEN PHARMACEUTICA NV, priority 2015, dated 2021)

target: unphosphorylated-BTK kinase domain (UP-BTK), GST-tagged human BTK (389-659aa) (Homo sapiens (Human), UniProt Q06187); test: BTK Kinase Lanthascreen Binding Assay; details: Lanthascreen binding, 60 minutes incubation; pIC50 = negative log of the IC50 in molar
Procedure: BTK Kinase Lanthascreen Binding Assay:
A BTK kinase lanthascreen binding assay monitors compound binding to unphosphorylated-BTK kinase domain (UP-BTK), by competing with a fluorescent labeled tracer. […] Data were analyzed using Xlfit™ version 5.3 from ID Business Solutions (Guildford), Microsoft Excel add-in. pIC50 refers to the negative log of the IC50 in molar.

Sequence of unphosphorylated-BTK kinase domain (UP-BTK), GST-tagged human BTK (389-659aa) (Q06187 389-659): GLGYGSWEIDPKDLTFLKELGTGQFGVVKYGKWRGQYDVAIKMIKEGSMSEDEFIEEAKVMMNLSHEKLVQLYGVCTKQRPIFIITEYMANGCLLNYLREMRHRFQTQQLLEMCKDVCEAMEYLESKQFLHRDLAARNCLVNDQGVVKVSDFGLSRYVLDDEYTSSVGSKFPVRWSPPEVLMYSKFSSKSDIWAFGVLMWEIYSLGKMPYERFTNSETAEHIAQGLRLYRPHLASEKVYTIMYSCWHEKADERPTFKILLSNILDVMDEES

SMILES	BTK_I_binding pIC50
C=CC(=O)N[C@@H]1CCC[C@H]1NC(=O)c1sc2nccc3c2c1NC(=O)N3c1cnc(CC(C)C)cc1C (single isomer, unassigned) [Example 382, N-((1R,2R)-2-Acrylamidocyclopentyl)-5-(*S)-(6-isobutyl-4-methylpyridin-3-yl)-4-oxo-4,5-dihydro-3H-1-thia-3,5,8-triazaacenaphthylene-2-carboxamide]	7.68
CCC(=O)N[C@H]1CCC[C@@H](NC(=O)c2sc3nccc4c3c2NC(=O)N4c2cnc(Oc3ccccc3)cc2C)C1 (single isomer, unassigned) [Example 385, 5-(*S)-(4-Methyl-6-phenoxypyridin-3-yl)-4-oxo-N-((1R,3S)-3-propionamidocyclohexyl)-4,5-dihydro-3H-1-thia-3,5,8-triazaacenaphthylene-2-carboxamide]	7.98
CCC(=O)N[C@@H]1CC[C@@H](NC(=O)c2sc3nccc4c3c2NC(=O)N4c2cnc(Oc3ccccc3)cc2C)C1 (single isomer, unassigned) [Example 388, 5-(*S)-(4-Methyl-6-phenoxypyridin-3-yl)-4-oxo-N-((1R,3R)-3-propionamidocyclopentyl)-4,5-dihydro-3H-1-thia-3,5,8-triazaacenaphthylene-2-carboxamide]	7.64
CC(=O)N[C@H]1CC[C@@H](NC(=O)c2sc3nccc4c3c2NC(=O)N4c2cnc(Oc3ccccc3)cc2C)CC1 (single isomer, unassigned) [Example 389, N-((1S,4S)-4-Acetamidocyclohexyl)-5-(*S)-(4-methyl-6-phenoxypyridin-3-yl)-4-oxo-4,5-dihydro-3H-1-thia-3,5,8-triazaacenaphthylene-2-carboxamide]	7.30
CCC(=O)N[C@@H]1CC[C@H](NC(=O)c2sc3nccc4c3c2NC(=O)N4c2cnc(Oc3ccccc3)cc2C)C1 (single isomer, unassigned) [Example 390, 5-(*S)-(4-Methyl-6-phenoxypyridin-3-yl)-4-oxo-N-((1S,3R)-3-propionamidocyclopentyl)-4,5-dihydro-3H-1-thia-3,5,8-triazaacenaphthylene-2-carboxamide]	8.04
CC(=O)N[C@@H]1CC[C@H](NC(=O)c2sc3nccc4c3c2NC(=O)N4c2cnc(Oc3ccccc3)cc2C)C1 (single isomer, unassigned) [Example 391, N-((1S,3R)-3-Acetamidocyclopentyl)-5-(*S)-(4-methyl-6-phenoxypyridin-3-yl)-4-oxo-4,5-dihydro-3H-1-thia-3,5,8-triazaacenaphthylene-2-carboxamide]	7.86
CC(=O)N[C@@H]1CC[C@@H](NC(=O)c2sc3nccc4c3c2NC(=O)N4c2cnc(Oc3ccccc3)cc2C)C1 (single isomer, unassigned) [Example 392, N-((1R,3R)-3-Acetamidocyclopentyl)-5-(*S)-(4-methyl-6-phenoxypyridin-3-yl)-4-oxo-4,5-dihydro-3H-1-thia-3,5,8-triazaacenaphthylene-2-carboxamide]	7.34
Cc1cc(OC2CCCC2)ncc1N1C(=O)Nc2c(C(=O)N[C@@H]3CC[C@H](N)C3)sc3nccc1c23 (single isomer, unassigned) [Example 394, N-((1R,3S)-3-Aminocyclopentyl)-5-(*S)-(6-(cyclopentyloxy)-4-methylpyridin-3-yl)-4-oxo-4,5-dihydro-3H-1-thia-3,5,8-triazaacenaphthylene-2-carboxamide]	6.70
CC(=O)N[C@H]1CC[C@H](NC(=O)c2sc3nccc4c3c2NC(=O)N4c2cnc(Oc3ccccc3)cc2C)C1 (single isomer, unassigned) [Example 395, N-((1S,3S)-3-Acetamidocyclopentyl)-5-(*S)-(4-methyl-6-phenoxypyridin-3-yl)-4-oxo-4,5-dihydro-3H-1-thia-3,5,8-triazaacenaphthylene-2-carboxamide]	6.66
Cc1cc(OCC(C)C)ncc1N1C(=O)Nc2c(C(=O)N[C@@H]3CCC[C@@H]3N)sc3nccc1c23 (single isomer, unassigned) [Example 397, N-((1R,2S)-2-Aminocyclopentyl)-5-(*S)-(6-isobutoxy-4-methylpyridin-3-yl)-4-oxo-4,5-dihydro-3H-1-thia-3,5,8-triazaacenaphthylene-2-carboxamide]	6.62
CCC(=O)N[C@H]1CC[C@H](NC(=O)c2sc3nccc4c3c2NC(=O)N4c2cnc(Oc3ccccc3)cc2C)C1 (single isomer, unassigned) [Example 399, 5-(*S)-(4-Methyl-6-phenoxypyridin-3-yl)-4-oxo-N-((1S,3S)-3-propionamidocyclopentyl)-4,5-dihydro-3H-1-thia-3,5,8-triazaacenaphthylene-2-carboxamide]	6.51
CC(=O)N[C@H]1CCC[C@H](NC(=O)c2sc3nccc4c3c2NC(=O)N4c2cnc(Oc3ccccc3)cc2C)C1 (single isomer, unassigned) [Example 400, N-((1S,3S)-3-Acetamidocyclohexyl)-5-(*S)-(4-methyl-6-phenoxypyridin-3-yl)-4-oxo-4,5-dihydro-3H-1-thia-3,5,8-triazaacenaphthylene-2-carboxamide]	6.46
CCC(=O)N[C@H]1CCC[C@H](NC(=O)c2sc3nccc4c3c2NC(=O)N4c2cnc(Oc3ccccc3)cc2C)C1 (single isomer, unassigned) [Example 402, 5-(*S)-(4-Methyl-6-phenoxypyridin-3-yl)-4-oxo-N-((1S,3S)-3-propionamidocyclohexyl)-4,5-dihydro-3H-1-thia-3,5,8-triazaacenaphthylene-2-carboxamide]	6.38
CC(=O)N[C@H]1CC[C@@H](NC(=O)c2sc3nccc4c3c2NC(=O)N4c2cnc(Oc3ccccc3)cc2C)C1 (single isomer, unassigned) [Example 403, N-((1R,3S)-3-Acetamidocyclopentyl)-5-(*S)-(4-methyl-6-phenoxypyridin-3-yl)-4-oxo-4,5-dihydro-3H-1-thia-3,5,8-triazaacenaphthylene-2-carboxamide]	6.26
C=CC(=O)N[C@@H]1CCCC[C@H]1NC(=O)c1sc2nccc3c2c1NC(=O)N3c1cnc(CC(C)C)cc1C (single isomer, unassigned) [Example 404, N-((1R,2R)-2-Acrylamidocyclohexyl)-5-(*S)-(6-isobutyl-4-methylpyridin-3-yl)-4-oxo-4,5-dihydro-3H-1-thia-3,5,8-triazaacenaphthylene-2-carboxamide]	6.21
Cc1cc(OCC(C)C)ncc1N1C(=O)Nc2c(C(=O)N[C@@H]3CC[C@H](N)C3)sc3nccc1c23 (single isomer, unassigned) [Example 405, N-((1R,3S)-3-Aminocyclopentyl)-5-(*S)-(6-isobutoxy-4-methylpyridin-3-yl)-4-oxo-4,5-dihydro-3H-1-thia-3,5,8-triazaacenaphthylene-2-carboxamide]	6.16
CC(=O)NC1CCC[C@H](NC(=O)c2sc3nccc4c3c2NC(=O)N4c2cnc(Oc3ccccc3)cc2C)C1 (single isomer, unassigned) [Example 407, N-((1S,3R)-3-Acetamidocyclohexyl)-5-(*S)-(4-methyl-6-phenoxypyridin-3-yl)-4-oxo-4,5-dihydro-3H-1-thia-3,5,8-triazaacenaphthylene-2-carboxamide]	6.05

same assay, conditions: read-out: BTK_I_binding pIC50 (converted)

SMILES	IC50 [nM]
CCC(=O)N[C@H]1CC[C@H](NC(=O)c2sc3nccc4c3c2NC(=O)N4c2ccc(Oc3ccccc3)nc2C)C1 (single isomer, unassigned) [Example 409, 5-(*S)-(2-Methyl-6-phenoxypyridin-3-yl)-4-oxo-N-((1S,3S)-3-propionamidocyclopentyl)-4,5-dihydro-3H-1-thia-3,5,8-triazaacenaphthylene-2-carboxamide]	> 1000
CC(=O)N[C@H]1CC[C@H](NC(=O)c2sc3nccc4c3c2NC(=O)N4c2ccc(Oc3ccccc3)nc2C)C1 (single isomer, unassigned) [Example 410, N-((1S,3S)-3-Acetamidocyclopentyl)-5-(*S)-(2-methyl-6-phenoxypyridin-3-yl)-4-oxo-4,5-dihydro-3H-1-thia-3,5,8-triazaacenaphthylene-2-carboxamide]	> 1000
C=CC(=O)N[C@@H]1CCC[C@H](NC(=O)c2sc3nccc4c3c2NC(=O)N4c2ccc(Oc3ccccc3)nc2C)C1 (single isomer, unassigned) [Example 411, N-((1S,3R)-3-Acrylamidocyclohexyl)-5-(*S)-(2-methyl-6-phenoxypyridin-3-yl)-4-oxo-4,5-dihydro-3H-1-thia-3,5,8-triazaacenaphthylene-2-carboxamide]	> 1000
CCC(=O)N[C@@H]1CCC[C@H](NC(=O)c2sc3nccc4c3c2NC(=O)N4c2ccc(Oc3ccccc3)nc2C)C1 (single isomer, unassigned) [Example 412, 5-(*S)-(2-Methyl-6-phenoxypyridin-3-yl)-4-oxo-N-((1S,3R)-3-propionamidocyclohexyl)-4,5-dihydro-3H-1-thia-3,5,8-triazaacenaphthylene-2-carboxamide]	> 1000
CC(=O)N[C@@H]1CCC[C@H](NC(=O)c2sc3nccc4c3c2NC(=O)N4c2ccc(Oc3ccccc3)nc2C)C1 (single isomer, unassigned) [Example 413, N-((1S,3R)-3-Acetamidocyclohexyl)-5-(*S)-(2-methyl-6-phenoxypyridin-3-yl)-4-oxo-4,5-dihydro-3H-1-thia-3,5,8-triazaacenaphthylene-2-carboxamide]	> 1000
Cc1nc(Oc2ccccc2)ccc1N1C(=O)Nc2c(C(=O)N[C@H]3CCC[C@@H](N)C3)sc3nccc1c23 (single isomer, unassigned) [Example 414, N-((1S,3R)-3-Aminocyclohexyl)-5-(*S)-(2-methyl-6-phenoxypyridin-3-yl)-4-oxo-4,5-dihydro-3H-1-thia-3,5,8-triazaacenaphthylene-2-carboxamide]	> 1000
